Assay results as given in ChEMBL document CHEMBL1140595, “Hybrid molecules between distamycin A and active moieties of antitumor agents” (Bioorg Med Chem, 2007).

Assays:
[1] = test system: L1210; assay: Antiproliferative activity against mouse L1210 cells; type: functional, cell-based
[2] = test system: FM3A; assay: Antiproliferative activity against mouse FM3A cells; type: functional, cell-based
[3] = test system: MOLT-4; assay: Antiproliferative activity against human Molt/4 cells; type: functional, cell-based
[4] = test system: CCRF-CEM; assay: Antiproliferative activity against human CEM cells; type: functional, cell-based
[5] = test system: Daudi; assay: Antiproliferative activity against human Daudi cells; type: functional, cell-based
[6] = test system: K562; assay: Antiproliferative activity against human K562 cells; type: functional, cell-based
[7] = test system: Jurkat; assay: Antiproliferative activity against human Jurkat cells; type: functional, cell-based
[8] = Inhibition of telomerase activity in human melanoma cell extracts
[9] = test system: WIL2-NS; assay: Antiproliferative activity against human Wil2-NS cells; type: functional, cell-based
[10] = test system: CCRF-SB; assay: Antiproliferative activity against human CCRF-SB cells; type: functional, cell-based
[11] = test system: Raji; assay: Antiproliferative activity against human Raji cells; type: functional, cell-based
[12] = test system: CCRF-CEM; assay: Antiproliferative activity against human CCRF-CEM cells; type: functional, cell-based

SMILES | IC50 [1] [µM] | IC50 [2] [µM] | IC50 [3] [µM] | IC50 [4] [µM] | IC50 [6] [µM] | further results
CC(C)(C)OC(=O)N1CC2CC23C1=CC(=O)c1c3cnn1Cc1ccccc1 (centres undefined) | 2.71 | 18.3 | 8.55 | 6.72 |  | IC50 [5]: 7.52 µM
COc1cc2c(cc1O)N=C[C@@H]1CCCN1C2=O |  |  |  |  | 1 | IC50 [7]: 2.2 µM
COC(=O)C1(O)C(OC)=CC(=O)N1CCCC(=O)Nc1cc(C(=O)Nc2cc(C(=O)Nc3cc(C(=O)NCCCN(C)C)n(C)c3)n(C)c2)n(C)c1 (centres undefined) | > 200 |  |  |  |  | 
Cc1n[nH]c2c1C13CC1CN(C(=O)OC(C)(C)C)C3=CC2=O (centres undefined) | 0.52 | 1.4 | 1.74 | 1.26 |  | IC50 [5]: 0.68 µM
C=C1CC(C)(COc2cc(C(=O)Nc3cc(C(=O)Nc4cc(C(=O)Nc5cc(C(=O)NCCNC(=N)N)n(C)c5)n(C)c4)n(C)c3)n(C)n2)OC1=O (centres undefined) | 9.6 | 42.5 | 12.3 | 15.9 |  | 
C=C1CC(COc2cc(C(=O)Nc3cc(C(=O)Nc4cc(C(=O)Nc5cc(C(=O)NCCNC(=N)N)n(C)c5)n(C)c4)n(C)c3)n(C)n2)(c2ccccc2)OC1=O (centres undefined) | 5.1 | 20.5 | 10.1 | 10 |  | 
Cn1cc(NC(=O)c2cc(NC(=O)c3cc(NC(=O)c4cc(NC(=O)c5cc(NC=O)cn5C)cn4C)cn3C)cn2C)cc1C(=O)NCCC(=N)N |  |  |  |  |  | IC50 [8]: 24 µM
C=C1CC(C)(CCCCCCCOc2cc(C(=O)Nc3cc(C(=O)Nc4cc(C(=O)Nc5cc(C(=O)NCCC(=N)N)n(C)c5)n(C)c4)n(C)c3)n(C)n2)OC1=O (centres undefined) | 26.7 | 63.3 | 71.1 | 35.6 |  | 
Cn1cc(NC(=O)c2cc(NC(=O)c3cc(NC(=O)CCCn4cc(F)c(=O)[nH]c4=O)cn3C)cn2C)cc1C(=O)NCCC(=N)N |  |  |  |  | 82 | 
C=C1CC(C)(COc2cc(C(=O)Nc3cc(C(=O)Nc4cc(C(=O)NCCC(=N)N)n(C)c4)n(C)c3)n(C)n2)OC1=O (centres undefined) | 8.02 | 27.6 | 6.8 | 9.6 |  | 
C=C1CC(C)(CCCOc2cc(C(=O)Nc3cc(C(=O)Nc4cc(C(=O)Nc5cc(C(=O)NCCC(=N)N)n(C)c5)n(C)c4)n(C)c3)n(C)n2)OC1=O (centres undefined) | 195 | 243 | 254 | 255 |  | 
C=C1CC(C)(COc2cc(C(=O)Nc3cc(C(=O)Nc4cc(C(=O)Nc5cc(C(=O)NCCC(=N)N)n(C)c5)n(C)c4)n(C)c3)n(C)n2)OC1=O (centres undefined) | 14.7 | 49 | 14.7 | 15.9 |  | 
C=C1CC(COc2cc(C(=O)Nc3cc(C(=O)Nc4cc(C(=O)Nc5cc(C(=O)NCCC(=N)N)n(C)c5)n(C)c4)n(C)c3)n(C)n2)(c2ccc(Cl)cc2)OC1=O (centres undefined) | 25.2 | 64.7 | 79.1 | 86.3 |  | 
C=C1CC(COc2cc(C(=O)Nc3cc(C(=O)Nc4cc(C(=O)Nc5cc(C(=O)NCCC(=N)N)n(C)c5)n(C)c4)n(C)c3)n(C)n2)(c2ccccc2)OC1=O (centres undefined) | 4.2 | 17.5 | 5.2 | 9.7 |  | 
Cn1cc(NC(=O)c2cc(NC(=O)c3cc(NC(=O)CCn4cc(F)c(=O)[nH]c4=O)cn3C)cn2C)cc1C(=O)NCCC(=N)N |  |  |  |  | 23 | 
Cn1cc(NC(=O)c2cc(NC(=O)c3cc(NC(=O)CCCCCCn4cc(F)c(=O)[nH]c4=O)cn3C)cn2C)cc1C(=O)NCCC(=N)N |  |  |  |  | 50 | 
COc1cc2c(cc1OCCC(=O)Nc1cc(C(=O)NCCC(=N)N)n(C)c1)N=C[C@@H]1CCCN1C2=O |  |  |  |  | > 100 | 
C=C1CC(C)(CCCCCOc2cc(C(=O)Nc3cc(C(=O)Nc4cc(C(=O)Nc5cc(C(=O)NCCC(=N)N)n(C)c5)n(C)c4)n(C)c3)n(C)n2)OC1=O (centres undefined) | 109 | 92 | 106 | 74.3 |  | 
C=C1CC(C)(COc2cc(C(=O)Nc3cc(C(=O)NCCC(=N)N)n(C)c3)n(C)n2)OC1=O (centres undefined) | 24.3 | 32.4 | 22.3 | 26.3 |  | 
Cn1cc(NC(=O)c2cc(NC(=O)c3cc(NC(=O)Cn4cc(F)c(=O)[nH]c4=O)cn3C)cn2C)cc1C(=O)NCCC(=N)N |  |  |  |  | > 200 | 
C=C1CC(COc2cc(C(=O)Nc3cc(C(=O)Nc4cc(C(=O)NCCC(=N)N)n(C)c4)n(C)c3)n(C)n2)(c2ccccc2)OC1=O (centres undefined) | 4.1 | 18.5 | 4.6 | 5.7 |  | 
C=C1CC(COc2cc(C(=O)Nc3cc(C(=O)Nc4cc(C(=O)Nc5cc(C(=O)NCCC(=N)N)n(C)c5)n(C)c4)n(C)c3)n(C)n2)(c2ccc(-c3ccccc3)cc2)OC1=O (centres undefined) | 33.2 | 21.8 | 65.3 | 95 |  | 
C=C1CC(COc2cc(C(=O)Nc3cc(C(=O)NCCC(=N)N)n(C)c3)n(C)n2)(c2ccccc2)OC1=O (centres undefined) | 12.5 | 36.3 | 15.8 | 18.9 |  | 
Cn1cc(NC(=O)c2cc(NC(=O)c3cc(NC(=O)[C@@H](N)CS)cn3C)cn2C)cc1C(=O)NCCC(=N)N |  |  | 35.8 |  | 24.2 | IC50 [9]: 98 µM; IC50 [10]: 92 µM; IC50 [11]: 45 µM; IC50 [12]: 36.7 µM
Cn1cc(NC(=O)c2cc(NC(=O)c3cc(NC(=O)C(N)CN)cn3C)cn2C)cc1C(=O)NCCC(=N)N (centres undefined) |  |  | 38.8 |  | 21.7 | IC50 [9]: 108 µM; IC50 [10]: 97 µM; IC50 [11]: 42.8 µM; IC50 [12]: 40.6 µM
Cn1cc(NC(=O)c2cc(NC(=O)c3cc(NC(=O)CCCCn4cc(F)c(=O)[nH]c4=O)cn3C)cn2C)cc1C(=O)NCCC(=N)N |  |  |  |  | 153 | 
Cn1cc(NC(=O)c2cc(NC(=O)c3cc(NC(=O)CCCCCn4cc(F)c(=O)[nH]c4=O)cn3C)cn2C)cc1C(=O)NCCC(=N)N |  |  |  |  | 50 | 
Cn1cc(NC(=O)c2cc(NC(=O)c3cc(NC=O)cn3C)cn2C)cc1C(=O)NCCC(=N)N [STALLIMYCIN] | 133 | 150 | 64.6 | 113 |  | 
